Starred links: 1 amine or outer side, 2 acyl side, 3 side chain; linkers in the order of their positions; H or OH if unused. Non-standard residues stand in square brackets, D forms with d. Residues, ends and D or L forms follow the SMILES beside them. *: point of attachment. Asp(3,3-(CH2)4) = N[C@H](C(=O)O)C1(C(=O)O)CCCC1; Dibenzylacetyl = O=C(C(Cc1ccccc1)Cc1ccccc1)*; Hydrocinnamoyl = O=C(CCc1ccccc1)*; tBuAla = CC(C)(C)C[C@H](N)C(=O)O; Tle = CC(C)(C)[C@H](N)C(=O)O; NMeV = CN[C@H](C(=O)O)C(C)C; NH(3-pentyl) = CCC(CC)N*; Pyrrolidide = C1CCN(*)C1; CO = O=C([*:1])[*:2]; X1 = CCC(CC)OC(=O)*; X2 = CCC(CC)CC(=O)*
Tests used:
[1] = Inhibitory potency against Herpes Simplex virus ribonucleotide reductase; parameters: species or system Herpes simplex virus (type 1 / strain 17)
[2] = Inhibitory potency against Varicella zoster virus ribonucleotide reductase

Molecule	IC50 [1]	IC50 [2]
CC(C)C[C@H](NC(=O)[C@H](CC(=O)O)NC(=O)[C@H](CC(N)=O)NC(=O)[C@@H](NC(=O)[C@@H](NC(=O)CCc1ccccc1)C(C)C)C(C)C)C(=O)O	4000 nM	15000 nM
CC(C)C[C@H](NC(=O)[C@H](CC(=O)O)NC(=O)[C@H](CC(N)=O)NC(=O)[C@@H](NC(=O)[C@@H](NC(=O)[C@H](C)NC(=O)CNC(=O)[C@H](C)NC(=O)[C@@H](N)Cc1ccc(O)cc1)C(C)C)C(C)C)C(=O)O	25000 nM	–
CCC(CC)NC(=O)C[C@H](C(=O)N[C@@H](CC(=O)N1CCCC1)C(=O)N[C@@H](CC(=O)O)C(=O)N[C@@H](CC(C)C)C(=O)O)C(C)(C)C	5 nM	3500 nM
CC(C)C[C@H](NC(=O)[C@H](CC(=O)O)NC(=O)[C@H](CC(=O)N1CCCC1)NC(=O)[C@@H](NC(=O)[C@@H](NC(=O)C(Cc1ccccc1)Cc1ccccc1)C(C)C)C(C)C)C(=O)O (Dibenzylacetyl-VVD(Pyrrolidide)DL-OH)	0.7 nM	22 nM
CC(C)C[C@H](NC(=O)[C@H](CC(=O)O)NC(=O)[C@H](CC(=O)N1CCCC1)NC(=O)[C@@H](NC(=O)[C@@H](NC(=O)CCc1ccccc1)C(C)C)C(C)C)C(=O)O (Hydrocinnamoyl-VVD(Pyrrolidide)DL-OH)	24 nM	588 nM
CC(C)[C@H](NC(=O)CCc1ccccc1)C(=O)N[C@H](C(=O)N[C@@H](CC(=O)N1CCCC1)C(=O)N[C@@H](CC(=O)O)C(=O)N[C@@H](CC(C)(C)C)C(=O)O)C(C)C (Hydrocinnamoyl-VVD(Pyrrolidide)D[tBuAla]-OH)	5 nM	9800 nM
CC(C)C[C@H](NC(=O)[C@@H](NC(=O)[C@H](CC(=O)N1CCCC1)NC(=O)[C@@H](NC(=O)[C@@H](NC(=O)CCc1ccccc1)C(C)C)C(C)C)C1(C(=O)O)CCCC1)C(=O)O (Hydrocinnamoyl-VVD(Pyrrolidide)[Asp(3,3-(CH2)4)]L-OH)	1 nM	37 nM
CC(C)C[C@H](NC(=O)[C@H](CC(=O)O)NC(=O)[C@H](CC(=O)N1CCCC1)NC(=O)[C@@H](NC(=O)[C@@H](NC(=O)CCc1ccccc1)C(C)C)C(C)(C)C)C(=O)O (Hydrocinnamoyl-V[Tle]D(Pyrrolidide)DL-OH)	4 nM	123 nM
CC(C)C[C@H](NC(=O)[C@H](CC(=O)O)NC(=O)[C@H](CC(=O)N1CCCC1)NC(=O)[C@@H](NC(=O)[C@H](C(C)C)N(C)C(=O)CCc1ccccc1)C(C)C)C(=O)O (Hydrocinnamoyl-[NMeV]VD(Pyrrolidide)DL-OH)	7.5 nM	210 nM
CCC(CC)OC(=O)N[C@H](C(=O)N[C@@H](CC(=O)N1CCCC1)C(=O)N[C@@H](CC(=O)O)C(=O)N[C@@H](CC(C)C)C(=O)O)C(C)(C)C (X1-[Tle]D(Pyrrolidide)DL-OH)	635 nM	7000 nM
CCC(CC)CC(=O)N[C@H](C(=O)N[C@@H](CC(=O)N1CCCC1)C(=O)N[C@@H](CC(=O)O)C(=O)N[C@@H](CC(C)C)C(=O)O)C(C)(C)C (X2-[Tle]D(Pyrrolidide)DL-OH)	140 nM	–
CCC(CC)NC(=O)N[C@H](C(=O)N[C@@H](CC(=O)N1CCCC1)C(=O)N[C@@H](CC(=O)O)C(=O)N[C@@H](CC(C)C)C(=O)O)C(C)(C)C ({NH(3-pentyl)-CO}-[Tle]D(Pyrrolidide)DL-OH)	3 nM	925 nM
H-YAGTVINDL-OH	8000 nM	–

— ChEMBL document CHEMBL1128941, “Peptidomimetic inhibitors of herpes virus ribonucleotide reductase. Correlation between herpes simplex and varicella zoster virus” (Bioorg Med Chem Lett, 1996)
